Results from patent publication US6054441A, “Oxypurine nucleosides and their congeners, and acyl derivatives thereof, for improvement of hematopoiesis” (priority 1995, dated 2000).
Read-outs that look alike come from different tables or passages of the source.

Assays:
mouse bone marrow cells = conditions: cited from earlier work
[1] = tested on: Interleukin-3 dependent bone marrow cells; conditions: 10 micrograms per milliliter
Experimental: (§2) Bone marrow cells were obtained by flushing the femurs of three male B6D2F1 mice. The cells were plated at 5.0×10^5 /ml in MEM plus 10% fetal calf serum and 25 Units/ml of recombinant IL-3 for 24-48 hours. Non-adherent cells were then separated from adherent cells and maintained for an additional twelve days. IL-3 was washed from cells, and cells were plated in MEM plus 10% fetal calf serum in the presence or absence of IL-3 and with or without the addition of palmitoyldeoxyguanosine (10 micrograms per milliliter) or deoxyguanosine (10 micrograms per milliliter). Cells were counted using the trypan blue exclusion method, and the percent of dead cells (trypan blue positive) was determined at 24, 40, 60 and 84 hours following the wash.

[2] = tested on: Interleukin-3 dependent bone marrow cells; experiment: cells; conditions: Mus musculus, Bone marrow cell, read-out: % Dead Cells
Experimental: as §2

[3] = tested on: hematopoietic recovery after cyclophosphamide; experiment: Hematopoietic recovery after cyclophosphamide (Example 64); format: in vivo, Balb/C mice; conditions: day 7
Experimental: (§1) Fourteen female Balb/C mice weighing approximately 20 grams each received a 0.4 ml i.p. injection of either N-isobutyryldeoxyguanosine (50 mg/kg/treatment) in a Tween vehicle (0.2% Tween-80 in saline) or vehicle alone one time daily for five days following a single injection of cyclophosphamide (CP) (250 mg/kg, i.p.). On day 7 following CP administration all fourteen animals were bled and then sacrificed by cervical dislocation. Spleens were removed and weighed, and complete blood cell counts performed.

[4] = tested on: human myeloid leukemia cell line (HL-60); conditions: cited from earlier work
[5] = tested on: hematopoietic recovery after cyclophosphamide; experiment: Hematopoietic recovery after cyclophosphamide (Example 37); format: in vivo, Balb/C mice; conditions: 5 μmoles/mouse/day i.p. 6 days; day 7; vs saline
Experimental: Twenty-four hours later and each day thereafter for a total of 6 days, mice were given a 0.4 ml i.p. injection of either physiological saline (controls), guanine (5 μmoles/mouse/day), or guanosine (5 μmoles/mouse/day). On day 7 all 10 mice in each of the three groups were bled, and then sacrificed by cervical dislocation. Spleens were removed and weighed, and complete blood cell counts performed.

[6] = tested on: hematopoietic recovery after cyclophosphamide; experiment: Hematopoietic recovery after cyclophosphamide, acyl chain length (Example 38); format: in vivo, Balb/C mice; conditions: day 7; guanosine 5, acyl derivatives 2.5 μmoles/mouse/day i.p.
Experimental: Cyclophosphamide (CP) (275 mg/kg, i.p.) was administered to 70 Balb/C female mice weighing approximately 20 grams each. Twenty-four hours later and each day thereafter for a total of 6 days, mice were given a 0.4 ml i.p injection of either physiological saline (controls), Tween 80 (0.2%), guanosine (5 μmoles/mouse/day in 0.2% Tween 80), or 2.5 μmoles per mouse per day of one of the following acylated derivatives of guanosine in 0.2% Tween 80: triacetylguanosine, octanoylguanosine, lauroylguanosine, or palmitoylguanosine. On day 7 following CP administration all 10 animals from each of the 7 groups were bled, and then sacrificed by cervical dislocation. Spleens were removed and weighed, and complete blood counts performed.

[7] = tested on: blood cell counts after cyclophosphamide; experiment: Recovery after cyclophosphamide (Example 61); format: in vivo, Balb/C mice; conditions: 7 days after CP
Experimental: as §1, with “Twelve” for “Fourteen”, “N-palmitoylguanine (25” for “N-isobutyryldeoxyguanosine (50”, “Tween-DMSO” for “Tween”, “Tween-80 and 7.5% DMSO” for “Tween-80”, “twelve of these” for “fourteen”, “dislocation. Six untreated mice were also bled and sacrificed to provide data on normal (basal) values.” for “dislocation.”

[8] = tested on: blood cell counts after 5-FU; experiment: Pretreatment, recovery after 5-fluorouracil (Example 60); format: in vivo, Balb/C mice; conditions: 7 days after 5-FU
Experimental: Twelve female Balb/C mice weighing approximately 20 grams each received a 0.4 ml i.p. injection of either N-palmitoylguanine (25 mg/kg/treatment) in a Tween-DMSO vehicle (0.2% Tween-80 and 7.5% DMSO in saline) or vehicle alone one time daily for three days. On the fourth day 5-fluorouracil (5-FU; 150 mg/kg, i.p.) was administered to all twelve animals. On day 7 following 5-FU administration all twelve of these animals were bled and then sacrificed by cervical dislocation. Six untreated mice were also bled and sacrificed to provide data on normal (basal) values. Spleens were removed and weighed, and complete blood cell counts performed.

[9] = in presence of post-endotoxin serum

Structure (SMILES): Nc1nc2c(ncn2[C@@H]2O[C@H](COP(=O)(O)O)[C@@H](O)[C@H]2O)c(=O)[nH]1 [5'-guanosine monophosphate]
- number of colonies formed (mouse bone marrow cells; [9]): inactive

Structure (SMILES): Nc1nc2c(ncn2[C@H]2C[C@H](O)[C@@H](CO)O2)c(=O)[nH]1 [dG, deoxyguanosine]
- prevention of apoptotic cell death due to IL-3 deprivation [1]: did nothing to prevent apoptotic cell death due to IL-3 deprivation
- cytotoxicity at 10 µg/mL ([2]; 24 h): 15.5 ± 0.5%
- cytotoxicity at 10 µg/mL ([2]; 40 h): 21.5 ± 3.5%
- cytotoxicity at 10 µg/mL ([2]; 60 h): 46.3 ± 10.3%
- cytotoxicity at 10 µg/mL ([2]; 84 h): 68.3 ± 6%

Structure (SMILES): CC(C)C(=O)Nc1nc2c(ncn2[C@H]2C[C@H](O)[C@@H](CO)O2)c(=O)[nH]1 [N-isobutyryldeoxyguanosine]
- spleen weight ([3]; 50 mg/kg/treatment, control 72.7±2.7, p<.001, in mg (unit assumed)): 116.3±8.0
- lymphocyte counts ([3]; control 1.2±0.2, p<.02): 2.1±0.2
- total neutrophil counts ([3]; control 3.3±0.4, p<.001): 6.6±0.5
- white blood cell counts ([3]; control 4.6±0.5, p<.001): 8.9±0.5

Structure (SMILES): Nc1nc2c(ncn2[C@@H]2O[C@@H]3COP(=O)(O)O[C@H]3[C@H]2O)c(=O)[nH]1 [cGMP, 3',5'-cyclic guanosine monophosphate]
- number of colonies formed (mouse bone marrow cells; in absence of post-endotoxin serum): no effect
- number of colonies formed (mouse bone marrow cells; [9]): increase in the number of colonies formed

Structure (SMILES): CN(C)C=O [dimethylformamide, reference compound]
- conversion of immature blast cells into mature granulocytes ([4]; HL-60 in vitro): induced

Structure (SMILES): Nc1nc2nc[nH]c2c(=O)[nH]1 [guanine]
- Neutrophils [5]: significantly more
- spleen weight [5]: significantly heavier spleens
- total white blood cells [5]: significantly more
- effect on induced maturation of HL-60 cells ([4]; HL-60 with inducing agents): prevented their induced maturation into functional neutrophils

Structure (SMILES): CCCCCCCCCCCC(=O)OC[C@H]1O[C@@H](n2cnc3c(=O)[nH]c(N)nc32)[C@H](O)[C@@H]1O [laurolyguanosine, Lauroylguanosine]
- spleen weight [6]: significantly larger spleens

Structure (SMILES): CCCCCCCCCCCCCCCC(=O)Nc1nc2nc[nH]c2c(=O)[nH]1 [NPG, N^2 -Palmitoylguanine]
- Neutrophils ([7]; 25 mg/kg/treatment): 5.5 ± .5 K/μl
- Platelets ([7]; 25 mg/kg/treatment): 774 ± 734 K/μl
- WBC ([7]; 25 mg/kg/treatment): 7.3 ± .6 K/μl
- Spleen ([7]; 25 mg/kg/treatment i.p., 5 days): 145 ± 13 mg
- Lymphocytes ([8]; 25 mg/kg/treatment): 4.5 ± .5 K/μl
- Platelets ([8]; 25 mg/kg/treatment): 787 ± 72 K/μl
- WBC ([8]; 25 mg/kg/treatment): 4.6 ± .5 K/μl
- Spleen ([8]; 25 mg/kg/treatment i.p., 3 days before): 79 ± 3 mg
